Data taken from patent US5837862A, “Sialyl Lewis X mimetics incorporating mannopeptides” (The Scripps Research Institute, priority 1996, dated 1998).

What was measured:
[1] = target: T1, E-selectin (Homo sapiens, UniProt P16581); test: E-selectin inhibition assay (Weitz-Schmidt et al.); format: binding
T1 sequence (P16581 22-610): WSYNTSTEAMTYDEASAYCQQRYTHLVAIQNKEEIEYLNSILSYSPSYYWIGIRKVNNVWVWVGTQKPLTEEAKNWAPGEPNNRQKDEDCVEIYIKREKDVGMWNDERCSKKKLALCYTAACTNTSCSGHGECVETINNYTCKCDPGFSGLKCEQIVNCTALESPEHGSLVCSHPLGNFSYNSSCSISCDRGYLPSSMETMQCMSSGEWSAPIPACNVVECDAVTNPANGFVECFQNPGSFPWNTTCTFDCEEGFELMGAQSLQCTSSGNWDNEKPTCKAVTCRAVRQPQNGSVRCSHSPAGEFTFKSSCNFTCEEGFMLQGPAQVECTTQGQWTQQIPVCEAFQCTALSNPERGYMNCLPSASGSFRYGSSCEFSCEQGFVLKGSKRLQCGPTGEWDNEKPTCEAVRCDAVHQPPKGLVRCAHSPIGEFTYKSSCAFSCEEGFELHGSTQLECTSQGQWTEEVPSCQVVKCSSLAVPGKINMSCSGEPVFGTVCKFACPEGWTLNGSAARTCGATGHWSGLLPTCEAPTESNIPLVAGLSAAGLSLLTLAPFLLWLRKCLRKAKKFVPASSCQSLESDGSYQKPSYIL

[2] = target: T2, P-selectin (Homo sapiens, UniProt P16109); test: P-selectin inhibition assay; format: binding; conditions: at 3 mM
T2 sequence (P16109 42-830): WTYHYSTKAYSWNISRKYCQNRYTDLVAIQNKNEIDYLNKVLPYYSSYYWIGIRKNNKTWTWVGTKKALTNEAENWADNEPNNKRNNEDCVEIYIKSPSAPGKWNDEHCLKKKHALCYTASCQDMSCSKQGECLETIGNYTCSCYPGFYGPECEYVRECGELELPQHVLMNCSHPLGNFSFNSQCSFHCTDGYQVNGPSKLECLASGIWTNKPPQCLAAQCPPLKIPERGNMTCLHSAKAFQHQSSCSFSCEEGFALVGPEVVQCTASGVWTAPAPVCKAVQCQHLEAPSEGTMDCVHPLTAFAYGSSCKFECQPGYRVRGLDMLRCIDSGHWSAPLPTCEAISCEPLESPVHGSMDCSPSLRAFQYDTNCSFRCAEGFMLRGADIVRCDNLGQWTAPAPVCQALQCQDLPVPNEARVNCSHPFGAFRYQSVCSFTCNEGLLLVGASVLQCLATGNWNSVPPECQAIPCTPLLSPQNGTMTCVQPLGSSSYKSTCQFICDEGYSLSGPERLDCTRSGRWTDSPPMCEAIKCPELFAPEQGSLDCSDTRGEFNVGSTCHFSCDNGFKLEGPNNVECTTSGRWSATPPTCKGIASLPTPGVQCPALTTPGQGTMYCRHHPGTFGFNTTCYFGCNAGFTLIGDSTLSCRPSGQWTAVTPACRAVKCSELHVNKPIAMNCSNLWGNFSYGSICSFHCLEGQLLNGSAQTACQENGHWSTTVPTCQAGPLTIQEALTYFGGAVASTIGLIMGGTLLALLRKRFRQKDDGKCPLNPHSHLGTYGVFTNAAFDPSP

[3] = target: T3, L-selectin (Homo sapiens, UniProt P14151); test: L-selectin inhibition assay; format: binding; conditions: at 3 mM
T3 sequence (P14151 39-372): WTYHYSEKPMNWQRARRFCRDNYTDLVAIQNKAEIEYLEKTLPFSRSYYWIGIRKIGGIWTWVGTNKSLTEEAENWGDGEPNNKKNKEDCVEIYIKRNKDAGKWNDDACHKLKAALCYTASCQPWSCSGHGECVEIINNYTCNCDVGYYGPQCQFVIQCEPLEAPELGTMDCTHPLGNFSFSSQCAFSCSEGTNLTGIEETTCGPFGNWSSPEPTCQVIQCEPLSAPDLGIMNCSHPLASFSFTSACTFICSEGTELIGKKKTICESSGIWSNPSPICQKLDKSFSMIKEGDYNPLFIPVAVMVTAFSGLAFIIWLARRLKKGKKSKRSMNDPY

[4] = test system: lung injury in rats; conditions: cited from earlier work
[5] = in vivo; cited from earlier work
[6] = test system: glycosidase; conditions: because of glycosidase reductions; cited from earlier work

Molecule: O=C(O)CNC(=O)[C@@H](O)[C@H](O)C[C@H]1O[C@H](CO)[C@@H](O)[C@H](O)[C@@H]1O [Mimetic 5, (2S,3R)-N-Carboxylmethyl-2,3-dihydroxy-4-(α-D -mannopyranosyl)-butyramide]
- IC50 [1]: 160 µM
- activity relative to SLex ([1]; versus SLex): 3 fold
- inhibition of P-selectin [2]: does not inhibit
- inhibition of L-selectin [3]: does not inhibit

Molecule: NeuAcα2→3Galβ1→4(Fucα1→3)GlcNAc [SLex]
- effective intravenous concentration ([4]; rat, intravenous infusion of up to 200 μg, calculated): less than 1 μM
- effect on lung injury ([4]; rat, intravenous infusion of up to 200 μg, cobra venom): dramatically reduced lung injury
- IC50 ([4]; rats, read-out: IC50 value in vivo for protecting against lung injury): ~1000 nM
- oral activity [5]: orally inactive
- stability in the blood stream [6]: unstable in the blood stream
